We go through one compound from article PMC7047876, “Potent Chimeric Antimicrobial Derivatives of the Medicago truncatula NCR247 Symbiotic Peptide” (Frontiers in Microbiology, 2020).

Holding throughout (assay type): cell-based
Assay [1] has as its system Listeria monocytogenes (ATCC 19111). Description: microbe, parasite or virus in culture. Particulars: ATCC 19111, 3 h, pH 7.4; read-out: Minimal bactericidal concentration (MBC) L. m. The source says:
(§1) The pathogenic bacterial strains obtained from the ATCC (United States) and NCTC (National Collection of Type Cultures – England) were the Gram-positive: Enterococcus faecalis (ATCC 29212), Staphylococcus aureus (HNCMO112011), Listeria monocytogenes (ATCC 19111) and the Gram-negative: Pseudomonas aeruginosa (ATCC 27853), Escherichia coli (ATCC 8739), Salmonella enterica (ATCC 13076), Klebsiella pneumoniae (NCTC 13440), Acinetobacter baumannii (ATCC 17978).
(§2) Overnight bacterial cultures grown in LB were diluted and grown to OD600 = 0.2–0.6 at 37°C with shaking. After harvesting and washing bacteria in PPB, the suspensions were adjusted to OD600 = 0.1 corresponding to ∼10^7 bacteria/mL. Antimicrobial activity of the peptides and the antibiotics was determined in PPB in 96 well microplates using 10 μL bacterial suspension and 90 μL of the 2-fold serial dilutions of peptides or antibiotics. Peptides were tested from 25 μM to 0.125 μM whereas the antibiotics; carbenicillin (Cb) from Duchefa Biochemie (Prod.No. C0109.0025) and levofloxacin (Lvx) from Sigma-Aldrich (Prod.No. 28266-10MG-F) from […] to 0.1 μM. The microplates were incubated for 3 h at 37°C with 250 rpm shaking and then 5 μl from each sample was placed on LB agar and the growth of bacteria was monitored after overnight incubation at 37°C. The lowest concentration of the antimicrobial agents, which completely eliminated viable bacteria was the minimal bactericidal concentration (MBC).

In assay [2] the test system is Escherichia coli (ATCC 8739). The assay can be described thus: microbe, parasite or virus in culture. Conditions: ATCC 8739, 3 h, pH 7.4; read-out: Minimal bactericidal concentration (MBC) E. c.
From the text: as §1, §2

Assay [3] relates to Pseudomonas aeruginosa (ATCC 27853). Description: microbe, parasite or virus in culture. Conditions: ATCC 27853, 3 h, pH 7.4; read-out: Minimal bactericidal concentration (MBC) P. a.
From the text: as §1, §2

Assay [4] has as its system Acinetobacter baumannii (ATCC 17978). Description: microbe, parasite or virus in culture. Conditions: ATCC 17978, 3 h, pH 7.4; read-out: Minimal bactericidal concentration (MBC) A. b.
From the text: as §1, §2

Assay [5] concerns Klebsiella pneumoniae (NCTC 13440). The assay can be described thus: microbe, parasite or virus in culture. Conditions: NCTC 13440, 3 h, pH 7.4; read-out: Minimal bactericidal concentration (MBC) K. p.
From the text: as §1, §2

Assay [6] has as its system Staphylococcus aureus (HNCMO112011). Description: microbe, parasite or virus in culture. Particulars: HNCMO112011, 3 h, pH 7.4; read-out: Minimal bactericidal concentration (MBC) S. a.
From the text: as §1, §2

Assay [7] concerns Salmonella enterica (ATCC 13076). The assay can be described thus: microbe, parasite or virus in culture. Conditions: ATCC 13076, 3 h, pH 7.4; read-out: Minimal bactericidal concentration (MBC) S. e.
From the text: as §1, §2

The test system of assay [8] is Enterococcus faecalis (ATCC 29212). Description: microbe, parasite or virus in culture. Particulars: ATCC 29212, 3 h, pH 7.4; read-out: Minimal bactericidal concentration (MBC) E. f.
From the text: as §1, §2

Another assay deals with Staphylococcus aureus.
From the text: as §1
(§3) Ca^2+ and Mg^2+ can inhibit the antimicrobial activity of cationic peptides, therefore the MBC and MIC values were also determined in MHB, which unlike PPB contains divalent cations and allows growth of bacteria. Bacteria were grown and prepared similarly except that bacteria were resuspended in MHB. 10 μl of bacteria OD600 = 0.1, supplemented with 45 μl MHB and 45 μl of 2-fold dilution series of peptides, were cultivated for 3 and 20 h at 37°C with shaking. Optical density of each sample was measured (Hidex Sense Microplate Reader with Plate Reader Software version 5064) and 5 μl was placed on LB agar plates after 3 and 20 h treatment. The minimal inhibitory concentration (MIC) corresponded to the lowest concentration, which inhibited growth.

For another assay, the system named is Escherichia coli.
From the text: as §1, §3

Another assay concerns Acinetobacter baumannii.
From the text: as §1, §3

Converted amounts (≈) assume the structure as drawn. Peptide text beside a SMILES is read from it.

In the case of `CSCC[C@H](NC(=O)[C@H](CCCCN)NC(=O)[C@H](Cc1ccccc1)NC(=O)[C@H](CC(N)=O)NC(=O)[C@H](CC(C)C)NC(=O)[C@@H]1CCCN1C(=O)[C@@H](N)CCCNC(=N)N)C(=O)N[C@@H](CC(C)C)C(=O)N[C@@H](CCCNC(=N)N)C(=O)N[C@@H](Cc1ccccc1)C(=O)N[C@@H](Cc1c[nH]c2ccccc12)C(=O)NCC(=O)N[C@@H](CCC(N)=O)C(=O)N[C@@H](CCC(N)=O)C(=O)N[C@@H](CCC(N)=O)C(=O)N[C@@H](CS)C(=O)N[C@@H](CCCNC(=N)N)C(=O)N[C@@H](CCCNC(=N)N)C(=O)N1CCC[C@H]1C(=O)N[C@@H](CC(C)C)C(=O)N[C@@H](Cc1ccc(O)cc1)C(=O)N[C@@H](CS)C(=O)N[C@@H](CCCNC(=N)N)C(=O)N[C@@H](CCCNC(=N)N)C(=O)N[C@@H](CCCNC(=N)N)C(=O)N[C@@H](Cc1c[nH]c2ccccc12)C(=O)N[C@@H](CO)C(=O)N[C@@H](Cc1c[nH]cn1)C(=O)N1CCC[C@H]1C(=O)N[C@@H](CCC(N)=O)C(=O)N[C@@H](Cc1ccccc1)C(=O)N[C@@H](CCC(=O)O)C(=O)N[C@@H](CCCCN)C(N)=O` [E, X1-NCR247C-StrepII] (H-RPLNFKMLRFWGQQQCRRPLYCRRRWSHPQFEK-NH2; N-terminus assumed), the MBC in assay [1] worked out at 3.1 µM (≈ 13.5 µg/mL); in [2] it was 3.1 µM (≈ 13.5 µg/mL); in assay [3] it was 3.1 µM (≈ 13.5 µg/mL); in [4], 3.1 µM (≈ 13.5 µg/mL); in [5], 6.3 µM (≈ 27.4 µg/mL); in assay [6], 3.1 µM (≈ 13.5 µg/mL). Further, the MBC in [7] is on record as 3.1 µM (≈ 13.5 µg/mL); in assay [8] it was 12.5 µM (≈ 54.4 µg/mL). In addition, the “MBC in Mueller Hinton Broth, panel (A), S. a.” value in the assay on Staphylococcus aureus (3 h) amounted to 25 µM (≈ 109 µg/mL). Also, the “MBC in Mueller Hinton Broth, panel (B), S. a.” value with Staphylococcus aureus (20 h) was found to be 6.3 µM (≈ 27.4 µg/mL). Besides, in the assay with Staphylococcus aureus (20 h), the “MIC in Mueller Hinton Broth, panel (C), S. a.” value is 6.3 µM (≈ 27.4 µg/mL). For the same compound, the “MBC in Mueller Hinton Broth, panel (A), E. c.” value in the assay with Escherichia coli (3 h) amounted to 25 µM (≈ 109 µg/mL). Also, the “MBC in Mueller Hinton Broth, panel (B), E. c.” value with Escherichia coli (20 h) was 6.3 µM (≈ 27.4 µg/mL). Moreover, in the assay on Escherichia coli (20 h), the “MIC in Mueller Hinton Broth, panel (C), E. c.” value was 6.3 µM (≈ 27.4 µg/mL). Moreover, the “MBC in Mueller Hinton Broth, panel (A), A. b.” value in the assay with Acinetobacter baumannii (3 h) is 12.5 µM (≈ 54.4 µg/mL). The “MBC in Mueller Hinton Broth, panel (B), A. b.” value in the assay with Acinetobacter baumannii (20 h) amounted to 6.3 µM (≈ 27.4 µg/mL). Moreover, the “MIC in Mueller Hinton Broth, panel (C), A. b.” value against Acinetobacter baumannii (20 h) came to 6.3 µM (≈ 27.4 µg/mL).
